How the values were obtained:
[1] = target: T1, N-terminally His6-tagged recombinant kinase domain of the human c-Met (amino acids 960-1390) (Homo sapiens, UniProt P08581); experiment: c-Met receptor tyrosine kinase homogeneous time-resolved fluorescence assay (alternative format); type: biochemical; settings: HTRF; ATP 10 μM, 30 min at 22° C.
T1 construct: kinase domain of the human c-Met (amino acids 960-1390); His6 (N); made in house; host or cells: insect cells (SF21)
Excerpt: c-Met Receptor Tyrosine Kinase Homogeneous Time-Resolved Fluorescence Assay (Alternative Format):
The N-terminally His6-tagged recombinant kinase domain of the human c-Met (amino acids 960-1390), expressed in insect cells (SF21) and purified by Ni-NTA affinity chromatography and consecutive size exclusion chromatography (Superdex 200), is used. Alternatively, commercially available c-Met (Millipore) can be used. As substrate for the kinase reaction, the biotinylated poly-Glu,Tyr (4:1) copolymer (#61GT0BLC, Cis Biointernational, Marcoule, France) is used.
For the assay, 50 nL of a 100-fold concentrated solution of the test compound in DMSO is pipetted into a black low-volume 384-well microtiter plate (Greiner Bio-One, Frickenhausen, Germany). 2 μL of a solution of c-Met in assay buffer [25 mM Hepes/NaOH, pH 7.5; 5 mM MgCl2; 5 mM MnCl2; 2 mM dithiothreitol; 0.1% (v/v) Tween 20 (Sigma); 0.1% (w/v) bovine serum albumin] are added, and the mixture is incubated for 15 min at 22° C. to allow pre-binding of the test compound to the enzyme before the start of the kinase reaction. Then, the kinase reaction is started by the addition of 3 μL of a solution of adenosine triphosphate (ATP, 16.7 μM; final concentration in the 5 μL assay volume is 10 μM) and substrate (2.27 μg/mL, final concentration in the 5 μL assay volume is 1.36 μg/mL˜30 nM) in assay buffer, and the resulting mixture is incubated for a reaction time of 30 min at 22° C. […]
The resulting mixture is incubated for 1 h at 22° C. to allow the binding of the biotinylated phosphorylated peptide to the streptavidine-XLent and the PT66-Eu-chelate. Subsequently, the amount of phosphorylated substrate is evaluated by measurement of the resonance energy transfer from the PT66-Eu-chelate to the streptavidine-XLent. Therefore, the fluorescence emissions at 620 nm and 665 nm after excitation at 350 nm are measured in an HTRF reader, e.g. Rubystar (BMG Lab-technologies, Offenburg, Germany) or Viewlux (Perkin-Elmer). […]

[2] = target: T2, Recombinant human c-Met protein (Homo sapiens, UniProt P08581); experiment: c-Met receptor tyrosine kinase activity assay (NADH read-out); type: biochemical; settings: c-Met 30 nM, ATP 30 μM, 100 min at 32° C.
T2 construct: purchased Invitrogen
Method: c-Met Receptor Tyrosine Kinase Activity Assay (NADH Read-Out):
Recombinant human c-Met protein (Invitrogen, Carlsbad, Calif., USA) is used. As substrate for the kinase reaction the peptide KKKSPGEYVNIEFG (JPT, Germany) is used. For the assay, 1 μL of a 51-fold concentrated solution of the test compound in DMSO is pipetted into a white 384-well microtiter plate (Greiner Bio-One, Frickenhausen, Germany). 25 μL of a solution of c-Met (final concentration 30 nM) and pyruvate kinase/lactate dehydrogenase (Roche Diagnostics, Mannheim, Germany; final concentration 8 mg/L) in assay buffer [3-(N-morpholino)propane-sulfonic acid (MOPS), 50 mM, pH 7; MgCl2, 10 mM; bovine serum albumin (BSA), 0.01%; Triton X 100, 0.01%; DTT, 2 mM] are added, and the mixture is incubated for 5 min at room temperature. Then, the kinase reaction is started by the addition of 25 μL of a solution of adenosine triphosphate (ATP, final concentration 30 μM), substrate (final concentration 100 μM), nicotinamide adenine dinucleotide (NADH, final concentration 50 μM) and dithiothreitol (DTT, final concentration 2 mM) in assay buffer, and the resulting mixture is incubated for a reaction time of 100 min at 32° C.
Subsequently, the amount of phosphorylated substrate is evaluated by measurement of the decrease of NADH fluorescence. Therefore, the fluorescence emissions at 465 nm after excitation at 340 nm is measured in a fluorescence reader, e.g. Tecan Ultra (Tecan, Männedorf, Switzerland). The data are normalised (enzyme reaction without inhibitor=0% inhibition; all other assay components but no enzyme=100% inhibition).

T1 sequence (P08581 960-1390): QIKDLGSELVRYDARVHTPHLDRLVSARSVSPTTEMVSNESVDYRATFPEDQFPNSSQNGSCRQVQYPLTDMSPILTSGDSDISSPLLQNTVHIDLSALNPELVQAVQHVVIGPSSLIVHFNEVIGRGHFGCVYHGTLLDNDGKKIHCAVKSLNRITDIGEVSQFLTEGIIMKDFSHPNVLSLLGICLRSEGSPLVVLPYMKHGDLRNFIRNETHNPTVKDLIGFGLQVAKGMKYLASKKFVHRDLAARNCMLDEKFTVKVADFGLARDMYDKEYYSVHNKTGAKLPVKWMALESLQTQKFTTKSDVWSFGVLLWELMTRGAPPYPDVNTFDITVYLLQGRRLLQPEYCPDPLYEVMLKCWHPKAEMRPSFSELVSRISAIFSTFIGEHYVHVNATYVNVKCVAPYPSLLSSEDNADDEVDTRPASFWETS
T2 sequence (P08581 25-1390): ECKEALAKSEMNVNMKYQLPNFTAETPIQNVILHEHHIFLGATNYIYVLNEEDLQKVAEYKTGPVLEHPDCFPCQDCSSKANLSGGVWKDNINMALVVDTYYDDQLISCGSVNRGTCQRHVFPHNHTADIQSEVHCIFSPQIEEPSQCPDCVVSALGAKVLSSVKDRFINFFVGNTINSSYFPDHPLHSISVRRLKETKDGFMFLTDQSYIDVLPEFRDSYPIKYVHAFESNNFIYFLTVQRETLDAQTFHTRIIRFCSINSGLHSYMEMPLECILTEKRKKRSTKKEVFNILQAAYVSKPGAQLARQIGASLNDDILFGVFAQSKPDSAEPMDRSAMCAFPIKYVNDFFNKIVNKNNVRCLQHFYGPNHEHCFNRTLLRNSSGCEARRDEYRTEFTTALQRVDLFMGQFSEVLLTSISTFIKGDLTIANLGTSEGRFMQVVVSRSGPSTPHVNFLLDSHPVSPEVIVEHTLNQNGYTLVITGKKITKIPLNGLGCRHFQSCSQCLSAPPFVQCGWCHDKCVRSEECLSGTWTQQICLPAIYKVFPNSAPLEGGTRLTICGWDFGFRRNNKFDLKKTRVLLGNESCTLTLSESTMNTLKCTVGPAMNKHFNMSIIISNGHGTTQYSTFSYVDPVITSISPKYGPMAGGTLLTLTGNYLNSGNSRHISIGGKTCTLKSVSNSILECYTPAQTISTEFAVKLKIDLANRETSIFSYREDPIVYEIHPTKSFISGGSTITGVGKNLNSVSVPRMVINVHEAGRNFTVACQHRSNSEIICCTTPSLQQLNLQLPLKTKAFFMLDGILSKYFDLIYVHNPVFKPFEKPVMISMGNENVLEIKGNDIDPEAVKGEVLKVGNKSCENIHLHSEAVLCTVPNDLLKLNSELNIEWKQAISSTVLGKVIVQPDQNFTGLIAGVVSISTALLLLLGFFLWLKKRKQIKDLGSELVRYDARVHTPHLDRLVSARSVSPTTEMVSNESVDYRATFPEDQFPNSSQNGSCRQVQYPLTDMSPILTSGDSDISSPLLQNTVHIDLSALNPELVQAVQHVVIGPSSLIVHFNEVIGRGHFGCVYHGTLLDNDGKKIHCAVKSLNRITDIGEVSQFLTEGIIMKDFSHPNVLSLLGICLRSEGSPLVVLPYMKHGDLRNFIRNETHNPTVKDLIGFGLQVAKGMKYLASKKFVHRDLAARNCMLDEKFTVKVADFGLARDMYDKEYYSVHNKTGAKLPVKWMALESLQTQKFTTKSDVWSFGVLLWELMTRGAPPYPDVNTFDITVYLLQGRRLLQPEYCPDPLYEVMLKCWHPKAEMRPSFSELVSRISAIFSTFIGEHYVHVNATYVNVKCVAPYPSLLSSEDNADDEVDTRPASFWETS

Compound	IC50 [1] [nM]	IC50 [2] [nM]
CCc1n[nH]c2ccc(C3C(C#N)=C(C)N4CCOCC4=C3C#N)cc12 (racemic) [Example 4, 8-(3-Ethyl-1H-indazol-5-yl)-6-methyl-1,3,4,8-tetrahydropyrido[2,1-c][1,4]oxazine-7,9-dicarbonitrile]	23	–
CC1=C(C#N)C(c2ccc3[nH]nc(C)c3c2)C(C#N)=C2COCCN12 (single isomer, unassigned) [Example 2, 6-Methyl-8-(3-methyl-1H-indazol-5-yl)-1,3,4,8-tetrahydropyrido[2,1-c][1,4]oxazine-7,9-dicarbonitrile]	1	8
CCc1n[nH]c2ccc(C3C(C#N)=C(C)N4CCOCC4=C3C#N)cc12 (single isomer, unassigned) [Example 5, 8-(3-Ethyl-1H-indazol-5-yl)-6-methyl-1,3,4,8-tetrahydropyrido[2,1-c][1,4]oxazine-7,9-dicarbonitrile]	–	12
CCc1n[nH]c2ccc(C3C(C#N)=C(C)N4CCOCC4=C3C#N)cc12 (single isomer, unassigned) [Example 6, 8-(3-Ethyl-1H-indazol-5-yl)-6-methyl-1,3,4,8-tetrahydropyrido[2,1-c][1,4]oxazine-7,9-dicarbonitrile]	–	88
CC1=C(C#N)C(c2ccc3[nH]nc(-c4ccc(F)nc4)c3c2)C(C#N)=C2COCCN12 (stereo not shown) [Example 7, 8-[3-(6-Fluoropyridin-3-yl)-1H-indazol-5-yl]-6-methyl-1,3,4,8-tetrahydropyrido[2,1-c][1,4]-oxazine-7,9-dicarbonitrile]	2	23
